Drawing on PMC12931196, “Vm–MSI: a Vancomycin–Antimicrobial Peptide Conjugate Combating Resistant Bacteria and Broadening the Antimicrobial Spectrum” (Advanced Science, 2025), this text covers MIC for five molecules.

Where two headings read alike, the source gives them in different places. Ends that are not written are not given here.

Consider `CC[C@H](C)[C@H](NC(=O)[C@H](CCCNC(=N)N)NC(=O)[C@H](CCCNC(=N)N)NC(=O)[C@@H](N)CSC1CC(=O)N(CC2CCC(C(=O)N(C)[C@H](CC(C)C)C(=O)N[C@H]3C(=O)N[C@@H](CC(N)=O)C(=O)N[C@H]4C(=O)N[C@H]5C(=O)N[C@H](C(=O)N[C@H](C(=O)O)c6cc(O)cc(O)c6-c6cc5ccc6O)[C@H](O)c5ccc(c(Cl)c5)Oc5cc4cc(c5O[C@@H]4O[C@H](CO)[C@@H](O)[C@H](O)[C@H]4O[C@H]4C[C@](C)(N)[C@H](O)[C@H](C)O4)Oc4ccc(cc4Cl)[C@H]3O)CC2)C1=O)C(=O)N[C@@H](CCCNC(=N)N)C(=O)N1CCC[C@H]1C(=O)N[C@@H](CCCNC(=N)N)C(=O)N1CCC[C@H]1C(=O)N1CCC[C@H]1C(=O)N[C@@H](CCCNC(=N)N)C(=O)N[C@@H](CC(C)C)C(=O)N1CCC[C@H]1C(=O)N[C@@H](CCCNC(=N)N)C(=O)N1CCC[C@H]1C(=O)N[C@@H](CCCNC(=N)N)C(=O)N1CCC[C@H]1C(=O)N[C@@H](CCCNC(=N)N)C(=O)N1CCC[C@H]1C(=O)O` (some centres unmarked) [Vm-Bac], for which the MIC is reported as 37.5(9.52) µg mL^−1 against S. typhimurium ATCC14028 (ATCC14028, 18 h); 18.75(4.76) µg mL^−1 with A. baumannii ATCC19606 (ATCC19606, 18 h); 18.75(4.76) µg mL^−1 in the test on VRSA 52 (52, 18 h); 2.34(0.59) µg mL^−1 with MRSA ATCC43300 (ATCC43300, 18 h); 1.17(0.30) µg mL^−1 against S. aureus 15192 (15192, 18 h); 0.78(0.20) µg mL^−1 in the test with S. aureus CMCC26003 (CMCC26003, 18 h). Moreover, the MIC in the test with E. coli ATCC25922 (ATCC25922, 18 h) is on record as 18.75(4.76) µg mL^−1; with S. aureus 15772 (15772, 18 h), 2.34(0.59) µg mL^−1; against P. aeruginosa ATCC27853 (ATCC27853, 18 h) it was >100(>25.4) µg mL^−1; in the test on K. pneumoniae 9883 (9883, 18 h) it was >100(>25.4) µg mL^−1; with S. aureus ATCC29213 (ATCC29213, 18 h) it was 2.34(0.59) µg mL^−1; in the test on VRSA 11 (11, 18 h), 18.75(4.76) µg mL^−1. Also, the MIC against E. faecalis ATCC29212 (ATCC29212, 18 h) is 18.75(4.76) µg mL^−1.

As for RRIRPRPPRLPRPRPRP [Bac-7], the MIC in the test with S. typhimurium ATCC14028 (ATCC14028, 18 h) is given as 75(34.53) µg mL^−1; against A. baumannii ATCC19606 (ATCC19606, 18 h) it was >100(>46.0) µg mL^−1; with VRSA 52 (52, 18 h), 75(34.53) µg mL^−1; in the test with MRSA ATCC43300 (ATCC43300, 18 h), 9.38(4.32) µg mL^−1; with S. aureus 15192 (15192, 18 h) it was 75(34.53) µg mL^−1; with S. aureus CMCC26003 (CMCC26003, 18 h), 37.5(17.27) µg mL^−1. Further, the MIC is recorded as 18.75(8.63) µg mL^−1 against E. coli ATCC25922 (ATCC25922, 18 h); 75(34.53) µg mL^−1 against S. aureus 15772 (15772, 18 h); >100(>46.0) µg mL^−1 against P. aeruginosa ATCC27853 (ATCC27853, 18 h); 9.38(4.32) µg mL^−1 against K. pneumoniae 9883 (9883, 18 h); >100(>46.0) µg mL^−1 with S. aureus ATCC29213 (ATCC29213, 18 h); 75(34.53) µg mL^−1 in the test with VRSA 11 (11, 18 h). For the same molecule, the MIC against E. faecalis ATCC29212 (ATCC29212, 18 h) is given as 18.75(8.63) µg mL^−1.

On to `CC(C)C[C@H](NC(=O)[C@H](Cc1ccc(O)cc1)NC(=O)[C@H](Cc1c[nH]cn1)NC(=O)[C@@H](NC(=O)[C@H](CC(C)C)NC(=O)[C@H](C)NC(=O)[C@H](C)NC(=O)[C@H](CCCCN)NC(=O)CNC(=O)[C@@H](NC(=O)[C@H](Cc1c[nH]cn1)NC(=O)[C@H](CCCCN)NC(=O)CNC(=O)[C@@H](NC(=O)[C@H](Cc1c[nH]cn1)NC(=O)[C@H](C)NC(=O)[C@H](C)NC(=O)[C@H](CCCCN)NC(=O)[C@H](CCCCN)NC(=O)[C@H](Cc1ccccc1)NC(=O)[C@H](Cc1ccccc1)NC(=O)[C@H](CO)NC(=O)CNC(=O)[C@H](Cc1c[nH]c2ccccc12)NC(=O)CNC(=O)[C@@H](N)CSC1CC(=O)N(CC2CCC(C(=O)N(C)[C@H](CC(C)C)C(=O)N[C@H]3C(=O)N[C@@H](CC(N)=O)C(=O)N[C@H]4C(=O)N[C@H]5C(=O)N[C@H](C(=O)N[C@H](C(=O)O)c6cc(O)cc(O)c6-c6cc5ccc6O)[C@H](O)c5ccc(c(Cl)c5)Oc5cc4cc(c5O[C@@H]4O[C@H](CO)[C@@H](O)[C@H](O)[C@H]4O[C@H]4C[C@](C)(N)[C@H](O)[C@H](C)O4)Oc4ccc(cc4Cl)[C@H]3O)CC2)C1=O)C(C)C)C(C)C)[C@@H](C)O)C(N)=O` (some centres unmarked) [Vm-Ple], for which the MIC is given as 75(16.75) µg mL^−1 in the test with S. typhimurium ATCC14028 (S. typhimurium ATCC14028, MH broth, 37 °C, 18 h, OD600); 2.34(0.52) µg mL^−1 against A. baumannii ATCC19606 (A. baumannii ATCC19606, MH broth, 37 °C, 18 h, OD600); 9.38(2.10) µg mL^−1 in the test on VRSA 52 (VRSA 52, MH broth, 37 °C, 18 h, OD600); 4.69(1.05) µg mL^−1 against MRSA ATCC43300 (MRSA ATCC43300, MH broth, 37 °C, 18 h, OD600); 2.34(0.52) µg mL^−1 with S. aureus 15192 (S. aureus 15192, MH broth, 37 °C, 18 h, OD600); 0.78(0.17) µg mL^−1 with S. aureus CMCC26003 (S. aureus CMCC26003, MH broth, 37 °C, 18 h, OD600). Further, the MIC with E. coli ATCC25922 (E. coli ATCC25922, MH broth, 37 °C, 18 h, OD600) is on record as 4.69(1.05) µg mL^−1; in the test on S. aureus 15772 (S. aureus 15772, MH broth, 37 °C, 18 h, OD600), 2.34(0.52) µg mL^−1; against P. aeruginosa ATCC27853 (P. aeruginosa ATCC27853, MH broth, 37 °C, 18 h, OD600), >100(>22.33) µg mL^−1; in the test with K. pneumoniae 9883 (K. pneumoniae 9883, MH broth, 37 °C, 18 h, OD600), 37.5(8.37) µg mL^−1; against S. aureus ATCC29213 (S. aureus ATCC29213, MH broth, 37 °C, 18 h, OD600) it was 4.69(1.05) µg mL^−1; in the test with VRSA 11 (VRSA 11, MH broth, 37 °C, 18 h, OD600), 9.38(2.10) µg mL^−1. The MIC in the test with E. faecalis ATCC29212 (E. faecalis ATCC29212, MH broth, 37 °C, 18 h, OD600) is 18.75(4.19) µg mL^−1.

Take `CC[C@H](C)[C@H](NC(=O)[C@@H](N)CSC1CC(=O)N(CC2CCC(C(=O)N(C)[C@H](CC(C)C)C(=O)N[C@H]3C(=O)N[C@@H](CC(N)=O)C(=O)N[C@H]4C(=O)N[C@H]5C(=O)N[C@H](C(=O)N[C@H](C(=O)O)c6cc(O)cc(O)c6-c6cc5ccc6O)[C@H](O)c5ccc(c(Cl)c5)Oc5cc4cc(c5O[C@@H]4O[C@H](CO)[C@@H](O)[C@H](O)[C@H]4O[C@H]4C[C@](C)(N)[C@H](O)[C@H](C)O4)Oc4ccc(cc4Cl)[C@H]3O)CC2)C1=O)C(=O)N[C@@H](CC(C)C)C(=O)N[C@@H](CCCNC(=N)N)C(=O)N[C@@H](Cc1c[nH]c2ccccc12)C(=O)N1CCC[C@H]1C(=O)N[C@@H](Cc1c[nH]c2ccccc12)C(=O)N[C@@H](Cc1c[nH]c2ccccc12)C(=O)N1CCC[C@H]1C(=O)N[C@@H](Cc1c[nH]c2ccccc12)C(=O)N[C@@H](CCCNC(=N)N)C(=O)N[C@@H](CCCNC(=N)N)C(=O)N[C@@H](CCCCN)C(N)=O` (some centres unmarked) [Vm-Omi]: the MIC is given as >100(>28) µg mL^−1 with S. typhimurium ATCC14028 (ATCC14028, 18 h); >100(>28) µg mL^−1 with A. baumannii ATCC19606 (ATCC19606, 18 h); 75(21.13) µg mL^−1 against VRSA 52 (52, 18 h); 4.69(1.32) µg mL^−1 with MRSA ATCC43300 (ATCC43300, 18 h); 0.78(0.22) µg mL^−1 against S. aureus 15192 (15192, 18 h); 0.78(0.22) µg mL^−1 against S. aureus CMCC26003 (CMCC26003, 18 h). Further, the MIC in the test with E. coli ATCC25922 (ATCC25922, 18 h) is listed as >100(>28) µg mL^−1; against S. aureus 15772 (15772, 18 h), >100(>28) µg mL^−1; in the test on P. aeruginosa ATCC27853 (ATCC27853, 18 h), >100(>28) µg mL^−1; against K. pneumoniae 9883 (9883, 18 h), >100(>28) µg mL^−1; against S. aureus ATCC29213 (ATCC29213, 18 h) it was 1.17(0.33) µg mL^−1; in the test on VRSA 11 (11, 18 h), 75(21.13) µg mL^−1. Further, the MIC with E. faecalis ATCC29212 (ATCC29212, 18 h) is reported as >100(>28) µg mL^−1.

For the molecule “GWGSFFKKAAHVGKHVGKAALTHYL-NH2 [Pleurecidin]”, the MIC against S. typhimurium ATCC14028 (ATCC14028, 18 h) is 18.75(6.92) µg mL^−1; in the test on A. baumannii ATCC19606 (ATCC19606, 18 h) it was 9.38(3.46) µg mL^−1; against VRSA 52 (52, 18 h), 9.38(3.46) µg mL^−1; with MRSA ATCC43300 (ATCC43300, 18 h), 2.34(0.86) µg mL^−1; in the test on S. aureus 15192 (15192, 18 h), 9.38(3.46) µg mL^−1; in the test with S. aureus CMCC26003 (CMCC26003, 18 h), 1.17(0.43) µg mL^−1. In addition, the MIC in the test with E. coli ATCC25922 (ATCC25922, 18 h) is 2.34(0.86) µg mL^−1; with S. aureus 15772 (15772, 18 h) it was 9.38(3.46) µg mL^−1; against P. aeruginosa ATCC27853 (ATCC27853, 18 h), 9.38(3.46) µg mL^−1; in the test on K. pneumoniae 9883 (9883, 18 h), 4.69(1.73) µg mL^−1; in the test on S. aureus ATCC29213 (ATCC29213, 18 h), 9.38(3.46) µg mL^−1; against VRSA 11 (11, 18 h) it was 4.69(1.73) µg mL^−1. For the same molecule, the MIC in the test on E. faecalis ATCC29212 (ATCC29212, 18 h) is 4.69(1.73) µg mL^−1.
